{
  "source": "patent US20070066505A1",
  "about": "“Anthocyanases as detergent additives” (priority 2005, published 2007)",
  "molecules": {"B1": {"name": "Candida molischiana anthocyanase (anthocyanin-β-glucosidase), recombinant, produced in Arxula adeninivorans (r-enzyme-1, rBglnp) (Kuraishia capsulata) (protein)", "chain": "KNISKAEMENLEHWWSYGRSDPVYPSPEISGLGDWQFAYQRAREIVALMTNEEKTNLTFGSSGDTGCSGMISDVPDVDFPGLCLQDAGNGVRGTDMVNAYASGLHVGASWNRQLAYDRAVYMGAEFRHKGVNVLLGPVVGPIGRVATGGRNWEGFTNDPYLAGALVYETTKGIQENVIACTKHFIGNEQETNRNPSGTYNQSVSANIDDKTMHELYLWPFQDSVRAGLGSIMGSYNRVNNSYACKNSKVLNGLLKSELGFQGFVVSDWGGQHTGIASANAGLDMAMPSSTYWEEGLIEAVKNGTVDQSRLDDMATRIIAAWYKYARLDDPGFGMPVSLAEDHELVDARDPAAASTIFQGAVEGHVLVKNENALPLKKPKYISLFGYDGVSTDVNTVGGGFSFFSFDVKAIENKTLISGGGSGTNTPSYVDAPFNAFVAKAREDNTFLSWDFTSAEPVANPASDACIDFINAAASEGYDRPNLADKYSDKLVEAVASQCSNTIVVIHNAGIRLVDNWIEHENVTGVILAHLPGQDTGTSLIEVLYGNQSPSGRLPYTVAKKASDYGGLLWPTEPEGDLDLYFPQSNFTEGVYIDYKYFIQKNITPRYEFGYGLTYTTFDYSELEVDAITNQSYLPPDCTIEEGGAKSLWDIVATVKFTVTNTGDVAAAEVPQLYVGIPNGPPKVLRGFDKKLIHPGQSEEFVFELTRRDLSTWDVVAQNWGLQAGTYQFYVGRSVFDVPLTSALVFTN"}},
  "key": {"[1]": {"system": "Debaryomyces vanrijiae anthocyanase (DVantp, enzyme-4), native", "assay": "Km determination via β-glucosidase activity, anthocyanase of D. vanrijiae (enzyme-4)", "format": "biochemical", "details": "read-out: Km value for cellobiose; established data", "source_text": "Moreover, the molecular weight and the isoelectric point were taken from literature (A. Belancic et al., J. Agric. Food Chem., 51: 1453-1459)."}, "[2]": {"system": "Debaryomyces hansenii anthocyanase (Dantp, enzyme-2), native", "assay": "Km determination via β-glucosidase activity, anthocyanase of D. hansenii (enzyme-2)", "format": "biochemical", "details": "read-out: Km value for cellobiose; native enzyme-2", "method": "The biochemical examinations of the anthocyanase (enzyme-2) of D. hansenii were performed corresponding to the anthocyanases examined up to then. Thus, their biochemical parameters were determined by means of β-glucosidase activity determinations. […] D. hansenii anthocyanase has a temperature optimum of 55° C. and a pH optimum of 5.0. […] Furthermore, with this yeast, too, one started to establish the substrate spectrum."}, "[3]": {"system": "Pichia etchellsii anthocyanase (Pantp, enzyme-5), native", "assay": "Km determination via β-glucosidase activity, anthocyanase of P. etchellsii (enzyme-5)", "format": "biochemical", "details": "native enzyme-5", "method": "The biochemical examinations of the anthocyanase (enzyme-5) of P. etchellsii were performed analogously to the anthocyanases examined up to then.\nThe temperature optimum was 50° C. and the optimal pH value was 6.5."}, "[4]": {"substrate": "O=[N+]([O-])c1ccc(O[C@@H]2O[C@H](CO)[C@@H](O)[C@H](O)[C@H]2O)cc1", "assay": "Km determination, recombinant anthocyanase (r-enzyme-1) of C. molischiana", "format": "biochemical, Candida molischiana", "details": "other: recombinant anthocyanase (r-enzyme-1); pH 5.5", "method": "(§1) A. adeninivorans G1211/pAL-ALEU2m-BGLN was tested for the presence of recombinant anthocyanase (Bglnp-r-enz-1). For doing so, the recombinant enzyme was isolated, purified and biochemically characterized.\n(§2) The recombinant anthocyanase has parameters very similar to those of C. molischiana enzyme (FIG. 9 and FIG. 10).\n(§3) The temperature optimum was established at 40° C. The temperature range in which this anthocyanase was still has more than 80% activity was between 37.5° C. and 50° C. The optimum pH value was 4.0. However, the recombinant anthocyanase has an essentially broader pH tolerance range than the anthocyanase synthesized in C. molischiana. Thus, its activity was still 80% with a pH value of 5.5."}, "[5]": {"substrate": "OC[C@H]1O[C@@H](O[C@H]2[C@H](O)[C@@H](O)C(O)O[C@@H]2CO)[C@H](O)[C@@H](O)[C@@H]1O", "assay": "Km determination, recombinant anthocyanase (r-enzyme-1) of C. molischiana", "format": "biochemical, Candida molischiana", "details": "other: recombinant anthocyanase (r-enzyme-1); pH 5.5", "method": "as §1, §2, §3"}},
  "note": "Where two headings read alike, the source gives them in different places.",
  "data": [
    {"molecule": "OC[C@H]1O[C@@H](O[C@H]2[C@H](O)[C@@H](O)C(O)O[C@@H]2CO)[C@H](O)[C@@H](O)[C@@H]1O", "note": "(stereo partly drawn) [cellobiose]", "values": [
      {"measurement": "Km", "setting": "[1]", "value": 8.3, "unit": "mM"},
      {"measurement": "Km", "setting": "[2]", "value": 16.3, "unit": "mM"},
      {"measurement": "Km", "setting": "[3]; read-out: Km value for cellobiose", "value": 84.5, "unit": "mM"}
    ]},
    {"molecule": "O=[N+]([O-])c1ccc(O[C@@H]2O[C@H](CO)[C@@H](O)[C@H](O)[C@H]2O)cc1", "note": "[pNPG]", "values": [
      {"measurement": "Km", "setting": "[3]; read-out: Km value for pNPG", "value": 59.7, "unit": "mM"}
    ]},
    {"molecule": "B1", "values": [
      {"measurement": "Km", "setting": "[4]", "value": 5.56, "unit": "mM"},
      {"measurement": "Km", "setting": "[5]", "value": 58.27, "unit": "mM"}
    ]}
  ]
}
